The source of these data is US7148237B2, “Nitrogen-containing heteroaryl compounds having HIV integrase inhibitory activity” (Shionogi & Co., Ltd., priority 2001, dated 2006).

In series [1] the target is integrase (Human immunodeficiency virus type 1 group M subtype B, UniProt P04585). The series is described as follows: Integrase inhibition assay (microtiter plate strand transfer, substrate DNA/target DNA, anti-digoxigenin ELISA readout). In kind it is biochemical. Conditions: concentration of the compound at percent inhibition 50%; OD at 405 nm. On the procedure: The inhibitory activities against integrase of the compounds in the present invention have been determined by the assay described below.
Substrate DNA and target DNA, which sequences were indicated below, were synthesized by Amersham Pharmacia Biotech and dissolved in KTE buffer (composition: 100 mM KCl, 1 mM EDTA, 10 mM Tris-HCl (pH 7.6)) at concentration of 2 pmol/μl and 5 pmol/μl, respectively. The DNA solutions were annealed with each complement by slowly cooling after heating.
Streptavidin, obtained from Vector Laboratories, was dissolved in 0.1 M carbonate buffer (composition: 90 mM Na2CO3, 10 mM NaHCO3) at concentration of 40 μg/ml. After coating each well of microtiter plates (obtained from NUNC) with 50 μl of the above solution at 4° C. over night, each well was washed twice with PBS (composition: […], 0.27 mM KCl, 0.43 mM Na2HPO4, 0.14 mM KH2PO4) and blocked with 300 μL of 1% skim milk in PBS for 30 min. Additionally, each well was washed twice with PBS and added 50 μl of substrate DNA solution (2 pmol/μl). The microtiter plates were kept at room temperature for 30 min. Then, each well was washed twice with PBS and once with H2O.
Subsequently, in the each well prepared above were added 45 μl of the reaction buffer prepared from 12 μl of the buffer (composition: 150 mM MOPS (pH 7.2), 75 mM MnCl2, 50 mM 2-mercaptoethanol, 25% glycerol, 500 μg/ml bovine serum albumin-fraction V), 1 μl of target DNA (5 pmol/μl), and 32 μl of the distilled water. Additionally, 6 μl of either a test compound in DMSO or DMSO for positive control (PC) was mixed with the above reaction buffer, then 9 μl of an integrase solution (30 pmol) was added and mixed well. In the well of negative control (NC) was added 9 μl of the integrase dilution buffer (composition: 20 mM MOPS (pH7.2), 400 mM potassium glutamate, 1 mM EDTA, 0.1% NP-40, 20% glycerol, 1 mM DTT, 4 M urea).
The microtiter plates were incubated at 30° C. for 1 hour. The reaction solution was removed and each well was washed twice with PBS. Subsequently, each well of the microtiter plates was filled with 100 μl of anti-digoxigenin antibody labeled with alkaline phosphatase (Sheep Fab fragment: obtained from Boehringer) and incubated at 30° C. for 1 hour. Then, each well was washed twice with 0.05% Tween20 in PBS and once with PBS. Next, 150 μl of the Alkaline phosphatase reaction buffer (composition: 10 mM p-Nitrophenylphosphate (obtained from Vector Laboratories), 5 mM MgCl2, 100 mM NaCl, 100 mM Tris-HCl (pH 9.5)) was added in each well. The microtiter plates were incubated at 30° C. for 2 hours and the reaction was terminated by the addition of 50 μl of 1 N NaOH solution. The optical density (OD) at 405 nm of each well was measured and the percent inhibition was determined by the following expression. The percent inhibition (%)=100[1−{(C abs.−NC abs.)/(PC abs.−NC abs.)}] • C abs.; the OD of the well of the • NC abs.: the OD of the negative control (NC) • PC abs.: the OD of the positive control (PC)
When the percent inhibition (%) is X % at the concentration of x μg/ml and the percent inhibition (%) is Y % at the concentration of y μg/ml, one of which is more than 50% and the other is less than 50%, IC50 can be determined by the following expression. IC50(μg/ml)=x−{(X−50)(x−y)/(X−Y)}
For orientation: In an ELISA, binding on a coated surface is turned into a signal by an enzyme label.

For orientation: IC50 means the midpoint of a concentration-inhibition curve. Low values mean greater potency, high ones weaker potency. Usually melting point stands for the temperature, or range, at which the solid turns liquid. The compound `O=C(c1ccc(Sc2ccc(F)cc2)o1)c1cc(Cl)c2cccnc2c1O` [Compound I-63] came in with a melting point of 120 to 122 °C. This compound showed an IC50 in series [1] of 1050 nM. On the same counts, the results for `COC(=O)c1cc(Cl)c2c(nc(Cc3ccc(F)cc3)n2C)c1O` [Compound I-6] are 198 to 201 °C and 1270 nM. Taken in the same sequence, the figures for `COC(=O)c1cc(Cl)c2[nH]c(Cc3ccc(F)cc3)nc2c1O` [Compound I-1] were 257 to 260 °C and 1610 nM.

`CCn1c(C)nc2c(O)c(-c3ncc(Cc4ccc(F)cc4)o3)ccc21` had a melting point of 150 to 151 °C. Take `O=C(c1cc(Cl)c2[nH]c(Cc3ccc(F)cc3)nc2c1O)N1CCCC1` [Compound I-20]: the melting point is 268 to 272 °C (dec.). The same compound showed an IC50 in series [1] of 2030 nM. `COC(=O)c1cc(C(=O)Nc2ccccn2)c2cc(Cc3ccc(F)cc3)cnc2c1O` displayed a melting point of 190 to 194 °C.

Take `Cc1nc2c(O)c(-c3nnc(Cc4ccccc4)o3)cc(Cl)c2[nH]1` [Compound I-35]: the melting point lay within 255 to 257 °C. Moreover, the IC50 in series [1] is 704 nM. Taken in the same sequence, the figures for `O=C(c1nccs1)c1ccc2[nH]c(Cc3ccc(F)cc3)nc2c1O` [Compound I-27] were 239 to 240 °C and 538 nM.

Take `O=C(c1ccc(Cc2ccc(F)cc2)o1)c1cc(Cl)c2cccnc2c1O`: the melting point lay within 126 to 128 °C.

On to `O=C(O)c1ccc2[nH]c(CCc3ccc(F)cc3)nc2c1O`, for which the melting point was 152 to 155 °C. As to `Cc1nc2c(O)c(-c3nnc(COc4ccccc4)o3)cc(Cl)c2[nH]1` [Compound I-37], the melting point fell in the range of 266 to 268 °C. For the same compound, in series [1], the IC50 is 1540 nM. For `O=C(O)c1cc(Cl)c2cc(Cc3ccc(F)cc3)cnc2c1O` [Compound I-65], the melting point fell in the range of 222 to 224 °C. The compound also gave an IC50 in series [1] of 332 nM.

`O=C(c1ccccc1)c1cc(C(=O)O)c2cc(Cc3ccc(F)cc3)cnc2c1O` registered a melting point of 220 to 223 °C.

Compound `CCOC(=O)c1cc(CC)c2cc(Cc3ccc(F)cc3)cnc2c1O` gave a melting point of 78 to 80 °C.
